pIC50: −log10 of the molar value.
Legend:
[1] = system: cellular uptake of X-DING-CD4 protein; assay: Cellular uptake of X-DING-CD4 protein tested by RSA in 1G5 cells treated with uptake inhibitors; assay type: cell-based
Description: Cellular uptake of X-DING-CD4 protein was tested by RSA in 1G5 cells treated with chemicals affecting: (i) clatrin mediated endocytosis—[…] (CPZ); (ii) endocytosis—cytochalasin D (CCD) and chloroquine (CQ) or (iii) macropinocytosis—dimethyl amiloride (DMA). Untreated group referred to the experimental system where X-DING-CD4 mediated inhibition of transcription was measured without cellular exposure to chemicals.

HIV-1 LTR promoter = assay: Rapid Suppression Assay (RSA), PMA-induced HIV-1 LTR-driven luciferase in 1G5 cells; assay type: cell-based; conditions: RSA; for pIC50: 1G5 cells, PMA 5 ng/ml, read-out: IC50, HIV-1 LTR promoter inhibition; for IC50, HIV-1 LTR promoter inhibition, mass concentration: Table 1
Source text: We applied the cell based Rapid Suppression Assay (RSA) for testing X-DING-CD4-induced inhibition of HIV-1 LTR promoter (Lesner et al., 2004; Lesner et al., 2005). Briefly, 1 G5 cells (obtained through the NIH AIDS Research and Reagent Program, Division of AIDS, NIAID, NIH) that are stably transfected with an inducible luciferase gene driven by HIV-1 LTR (Aguilar-Cordova et al., 1994) were washed in PBS, resuspended in hybridoma medium to concentration of 5×10^6cells/ml. For purpose of generating control titration curves, 100 μl aliquots of 1G5 cells were mixed with 100 μl cell culture medium either supplemented with various amount of rX-DING-CD4^pep (SEQ ID No: 1) or no rX-DING-CD4^pep, and incubated for three hours at 37° C. Subsequently, all cells were induced with phorbol 12-myristate 13-acetate (PMA) at a concentration of 5 ng/ml. Two control tubes containing 1G5 cells without rX-DING-CD4^pep treatment were resuspended in hybridoma medium with or without PMA. Three hours later cells were collected by centrifugation and lysed in the same tubes using Reporter Lysis buffer (Promega). The expression levels of luciferase protein in the lysates were determined according to the manufacturer's protocol. The X-DING-CD4^pep inhibition values were established based on the formula: [(LUC1-LUC0)×100/Z]−100; where LUC1 is the value obtained from cells induced by PMA and treated with a specific dilution of X-DING-CD4^pep; and LUC0 is the basal value obtained from the uninduced and untreated cells; Z is the absolute luciferase induction by PMA calculated as Z=LUCmax-LUCO3 where LUCmax is the value of 100% luciferase expression in PMA induced X-DING-CD4^pep untreated cells.
One aspect of the present invention is related to X-DING-CD4 peptide derivatives. Here we obtained 15 derivatives SED ID NOS: 1-15 by recombination or in vitro synthesis. We tested the biological activity of some these derivatives by rapid suppression assay (RSA). In XD-4M, the third amino acid glycine in the native X-DING-CD4 peptide was substituted with the polar amino acid glutamine. In XD-7, the two amino acids, cysteine and valine, replaced the three amino acids, glycine, serine and aspartic acid, in the native X-DING-CD4 peptide. In XD-12 and XD-12sh, the 69th amino acid glutamic acid in the native X-DING-CD4 peptide was methylated. In XD-9, the 69th amino acid glutamic acid in the native X-DING-CD4 peptide was substituted with the amino acid glutamine. The RSA procedure was similar to that described in Example 2. The inhibitory values are plotted in FIG. 5.
We performed the rapid suppression assay (RSA) which tests directly the inhibition of HIV-1 transcription (similar to the procedure described in Example 2), the MAGI assay which tests the inhibition of HIV-1 replication in a single cycle infection (similar to the procedure described in Example 2), and the HIV-1 infection inhibition assay in human PBLs.

| Compound | effect of uptake inhibitor on sX-DING-CD4 inhibition of LTR transcription [1] | pIC50 (HIV-1 LTR promoter) | IC50, HIV-1 LTR promoter inhibition, mass concentration (HIV-1 LTR promoter) |
| --- | --- | --- | --- |
| C=C1[C@@H](C)[C@H]2[C@H](Cc3ccccc3)NC(=O)[C@]23[C@H](OC(C)=O)/C=C/[C@@](C)(O)C(=O)[C@@H](C)C/C=C/[C@H]3[C@@H]1O [CCD, cytochalasin D] | still demonstrated inhibitory effects of sX-DING-CD4 on LTR transcription |  |  |
| CN(C)CCCN1c2ccccc2Sc2ccc(Cl)cc21 [CPZ, Chromopromazine] | still demonstrated inhibitory effects of sX-DING-CD4 on LTR transcription |  |  |
| CCN(CC)CCCC(C)Nc1ccnc2cc(Cl)ccc12 (stereo not shown) [CQ, chloroquine] | still demonstrated inhibitory effects of sX-DING-CD4 on LTR transcription |  |  |
| CN(C)c1nc(N)c(C(=O)N=C(N)N)nc1Cl [DMA, dimethyl amiloride] | abolished the inhibitory effect of sX-DING-CD4 on LTR transcription |  |  |
| DINGGGATLPQK [XD-1] |  | 7.29 | (60 ng/ml) |
| DINGGQTLPQK [XD-4M] |  | 7.24 | (66.9 ng/ml) |
| GTKNVHWACVSKLTSTELSTY [XD-7] |  | 7.53 | (69.3 ng/ml) |
| GTKNVHWAGSDSKLTSTELSTYC [XD-5] |  | 7.45 | (88.7 ng/ml) |
| GVSNKNVHWAGSDSKLTAT [XD-14] |  | 7.43 | (72.5 ng/ml) |
| GVSNKNVHWAGSDSKLTATE(OMe)LSTY [XD-12] |  | 7.47 | (86.2 ng/ml) |
| GVSNKNVHWAGSDSKLTATLLSTY [XD-15] |  | 7.44 | (93.5 ng/ml) |
| GVSNKNVHWAGSDSKLTATQLSTY [XD-13] |  | 7.52 | (77.5 ng/ml) |
| KNVHWAGSDSKLTSTELSTY [XD-4] |  | 7.51 | (70 ng/ml) |
| LLSTY [XD-15sh] |  | 6.80 | (93.5 ng/ml) |
| QLSTY [XD-13sh] |  | 6.92 | (74 ng/ml) |
| YTSLE [XD-12sh, YTSLE(OMe)] |  | 6.92 | (74 ng/ml) |
